Columns and labels:
[1] = tested on: MOLM-14 (acute myeloid leukemia) cell line; test: CellTiter-Glo luminescent cell viability assay, MOLM-14; type: cell-based, human; settings: Homo sapiens; for viability at 4 µM: MOLM-14, compound at 4 μM; for viability at 4 µM / viability at 10 µM: 72 h; for viability at 10 µM: MOLM-14, compound at 10 μM
Outline: (§1)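 Adherent lines plated overnight, MOLM-14 (suspension) 1 h before dosing, in medium with 10% FBS at 37 °C, 5% CO2. Compounds added at varying concentrations for 72 h; CellTiter-Glo luminescence read, EC50 as dose reducing signal to 50% of diluent-treated cells, at least duplicate points.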

[2] = tested on: A375 (malignant melanoma) cell line; test: CellTiter-Glo luminescent cell viability assay, A375; type: cell-based, human; settings: Homo sapiens, A-375; for viability at 4 µM: A375, compound at 4 μM; for viability at 4 µM / viability at 10 µM: 72 h; for viability at 10 µM: A375, compound at 10 μM
Outline: (§2)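 Adherent cells grow overnight, or suspension cells are seeded 1 h ahead; compound dilutions are then added and plates incubated 72 h at 37 °C. After 30 min at room temperature, CellTiter-Glo reagent is added and luminescence recorded. EC50 derives from signal relative to diluent control.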

[3] = tested on: HCT-116 (colorectal carcinoma) cell line; test: CellTiter-Glo luminescent cell viability assay, HCT-116; type: cell-based, human; settings: Homo sapiens; for viability at 4 µM: HCT-116, compound at 4 μM; for viability at 4 µM / viability at 10 µM: 72 h; for viability at 10 µM: HCT-116, compound at 10 μM
Outline: as §2

[4] = tested on: Huh7 (hepatocellular carcinoma) cell line; test: CellTiter-Glo luminescent cell viability assay, Huh7; type: cell-based, human; settings: Homo sapiens, Huh-7; for viability at 4 µM: Huh7, compound at 4 μM; for viability at 4 µM / viability at 10 µM: 72 h; for viability at 10 µM: Huh7, compound at 10 μM
Outline: as §1

[5] = tested on: 786-O (renal adenocarcinoma) cell line; test: CellTiter-Glo luminescent cell viability assay, 786-O; type: cell-based, human; settings: Homo sapiens, 786-0; for viability at 4 µM / viability at 10 µM: 786-O, 72 h; for viability at 4 µM: compound at 4 μM; for viability at 10 µM: compound at 10 μM
Outline: as §2

[6] = tested on: HepG2 (hepatocellular carcinoma) cell line; test: CellTiter-Glo luminescent cell viability assay, HepG2; type: cell-based, human; settings: Homo sapiens; for viability at 4 µM / viability at 10 µM: HepG2, HepG, 72 h; for viability at 4 µM: compound at 4 μM; for viability at 10 µM: compound at 10 μM
Outline: as §1

[7] = tested on: PANC-1 (prancreatic carcinoma) cell line; test: CellTiter-Glo luminescent cell viability assay, PANC-1; type: cell-based; settings: Homo sapiens, 72 h, % of signal of diluent-treated cultures; for viability at 4 µM: PANC-1, 4 μM; for viability at 10 µM: PANC-1, 10 μM
Experimental: All cell lines were maintained in medium containing 1% penicillin-streptomycin (Dutscher, P06-07100) and 10% Fetal Bovine Serum (Hyclone Dutscher, RZK35922) cultured at 37° C. with 5% CO2. HepG2 (hepatocellular carcinoma), cell line was cultured in Dulbecco's modified Eagle's medium low glucose (Gibco, 21885025), Huh7 (hepatocellular carcinoma), HCT-116 (colorectal carcinoma), PANC-1 (prancreatic carcinoma) and A375 (malignant melanoma) cell lines were cultured in Dulbecco's modified Eagle's medium (Dutscher, L0103). MOLM-14 (acute myeloid leukemia) cell line was maintained in MEM alpha medium (Gibco, 22561-021). 786-0 (renal adenocarcinoma) cell lines were maintained in RPMI 1640 medium (Dutscher, L0498).
Cell viability was measured using the CellTiter-Glo® luminescent cell viability assay as described by the manufacturer (Promega, Ref G7571) using an Infinite F200Pro luminometer (Tecan). Briefly, for adherent cells, cells were plated onto 96-well plates (white with clear bottom) in 90 μL of media per well and were allowed to grow overnight before the assay. For cells growing in suspension, cells were plated onto 96-well plates 1 h before the assay.
Compounds were resuspended in H2O or DMSO and added at different concentrations to each well, and cell cultures were incubated for 72 h. Each diluent (H2O or DMSO) were used as a control, and all compounds were tested in a constant percentage of H2O or DMSO. On the day of the reading, plates are equilibrated 30 min at room temperature before the addition of 100 μL of CellTiter-Glo® and luminescence was measured using an Infinite F200Pro (Tecan). % cell viability were expressed as a percentage of the signal obtained for cell cultures treated with diluent. EC50 values were determined as the dose of compound required to reduce luminescent values to 50% of the signal obtained for cell cultures treated with diluent. The experimental data were analyzed using a computer program, Graphpad Prism v5 (GraphPad Software, Inc. La Jolla, Calif.). All points were at least done in duplicate.

SMILES	viability at 4 µM [1]	viability at 10 µM [1]	viability at 4 µM [2]	viability at 10 µM [2]	viability at 4 µM [3]	viability at 10 µM [3]	viability at 4 µM [4]	viability at 10 µM [4]	viability at 4 µM [5]	viability at 10 µM [5]	viability at 4 µM [6]	viability at 10 µM [6]	viability at 4 µM [7]	viability at 10 µM [7]	EC50 ([1]; MOLM-14 cell line, 72 h incubation, CellTiter-Glo, read-out: EC50, growth inhibition of MOLM-14)	EC50 ([2]; A375 cell line, 72 h incubation, CellTiter-Glo, read-out: EC50, growth inhibition of A375)	EC50 ([3]; HCT-116 cell line, 72 h incubation, CellTiter-Glo, read-out: EC50, growth inhibition of HCT-116)	EC50 ([4]; Huh7 cell line, 72 h incubation, CellTiter-Glo, read-out: EC50, growth inhibition of Huh7)	EC50 ([5]; 786-O cell line, 72 h incubation, CellTiter-Glo, read-out: EC50, growth inhibition of 786-O)	EC50 ([6]; HepG2 cell line, 72 h incubation, CellTiter-Glo, read-out: EC50, growth inhibition of HepG2)
N#Cc1c(NCc2ccc(Cl)cc2)nc2ccccc2c1N1CCC(N2CCOCC2)C1 (stereo not drawn) [Compound 150CN, 2-(4-chloro-benzylamino)-3-cyano-4-(3-morpholino-pyrrolidin-1-yl)quinoline]	109%	114%	97.9%	96.8%	99.5%	95.1%	93.8%	90.4%	96.1%	91.4%	100%	103%	101%	101%						
CC(C)(C)OC(=O)NC1CCCN(c2c(C#N)c(NCc3ccc(Cl)cc3)nc3ccccc23)C1 (stereo not drawn) [Compound 154CN]	112%	113%	96.2%	88.5%	98.8%	87.2%	101%	93.5%	94.1%	82.3%	105%	97.5%	107%	99%						
CCN(CC)C1CCCN(c2c(C#N)c(NCc3ccc(Cl)cc3)nc3ccccc23)C1 (stereo not drawn) [Compound 160CN, 2-(4-chlorobenzylamino)-3-cyano-4-[3-(diethylamino)piperidin-1-yl]quinoline]	106%	94.5%	86.6%	47.9%	86.4%	47.3%	89.5%	62.3%	94.9%	40%	94.5%	48.3%	99.6%	75.3%						
N#Cc1c(NCc2ccc(Cl)cc2)nc2ccccc2c1N1CCCC(NC2CCCC2)C1 (stereo not drawn) [Compound 162CN, 2-(4-chlorobenzylamino)-3-cyano-4-[3-(cyclopentylamino)piperidin-1-yl]quinoline]	45.6%	0.3%	0.4%	0.2%	0.8%	0.1%	37.1%	0.2%	12%	0.2%	0.3%	0.1%	75.3%	0.8%	500 to 5000 nM	500 to 5000 nM	500 to 5000 nM	500 to 5000 nM	500 to 5000 nM	500 to 5000 nM
N#Cc1c(NCc2ccc(Cl)cc2)nc2ccccc2c1N1CCCC(N2CCCC2)C1 (stereo not drawn) [Compound 176CN, 2-(4-chlorobenzylamino)-3-cyano-4-[3-(pyrrolidin-1-yl)piperidin-1-yl]quinoline]	95.6%	75.2%	114%	65.4%	84.3%	42.7%	96.4%	64.7%	89.8%	39.3%	93%	60.2%	93.2%	70.6%						
N#Cc1c(NCc2ccc(Cl)cc2)nc2ccccc2c1N1CCCC(N2CCOCC2)C1 (stereo not drawn) [Compound 178CN, 2-(4-chlorobenzylamino)-3-cyano-4-[3-(morpholino)piperidin-1-yl]quinoline]	123%	106%	95.5%	90.2%	95.7%	77%	95.3%	81.9%	99.6%	88.9%	101%	97.5%	100%	96.6%						

— patent publication US10577362B2, “Substituted 2, 4-diamino-quinoline derivatives for use in the treatment of proliferative diseases” (GENOSCIENCE PHARMA, priority 2016, dated 2020)
